Experimental data: article PMC11062899, “De novo development of small cyclic peptides that are orally bioavailable” (Nature Chemical Biology, 2023)
Several values for one entry are separate records, joined by “and”; a condition that tells them apart may be missing. Equal values may be shown once. Read-outs that look alike come from different tables or passages of the source.

Tests used:
human α-thrombin = human α-thrombin (Homo sapiens, UniProt P00734); assay: Protease inhibition, Ki for human α-thrombin (fluorogenic substrate Z-Gly-Gly-Arg-AMC); type: biochemical; settings: for slope normalized to DMSO, human alpha thrombin inhibition: replicates R1-R3
Procedure, shortened: (§1)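 Inhibition was measured as AMC fluorescence from 50 μM substrate, monitored for 30 min at 25 °C, relative to a peptide-free control. Human and rat enzymes were present at 2 nM and 3 nM final, respectively, in 50 mM Tris-HCl pH 7.4, 150 mM NaCl, 10 mM MgCl2, 1 mM CaCl2. Ki derives from fitted IC50 via Cheng–Prusoff.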

rat α-thrombin = molecular target: T1, rat α-thrombin (Rattus norvegicus, UniProt P18292); assay: Protease inhibition, Ki for rat α-thrombin (fluorogenic substrate Z-Gly-Gly-Arg-AMC); type: biochemical; settings: for slope normalized to DMSO, rat alpha thrombin inhibition: replicates R1-R3
T1 construct: rat α-thrombin (Molecular Innovations) were used at final concentrations of 2 nM and 3 nM; purchased Molecular Innovations
Procedure, shortened: as §1

[1] = Passive artificial membrane permeability (PAMPA);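 as to Permeability% Average: top well sample relative to theoretical equilibrium sample by TIC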

Ki (human α-thrombin; average of R1-R3, read-out: Ki Average, human alpha thrombin inhibition): 204 nM | IC50 (human α-thrombin; individual replicates R1-R3, read-out: IC50, human alpha thrombin inhibition): 273 nM and 252 nM and 268 nM | slope normalized to DMSO, human alpha thrombin inhibition (human α-thrombin; peptide 1.00E+02 uM): 11.3 and 11.6 and 10.6 | slope normalized to DMSO, human alpha thrombin inhibition (human α-thrombin; peptide 1.19E-05 uM): 102.6 and 106.2 and 105.7 | slope normalized to DMSO, human alpha thrombin inhibition (human α-thrombin; peptide 1.22E-02 uM): 98.0 and 95.4 and 97.5 | slope normalized to DMSO, human alpha thrombin inhibition (human α-thrombin; peptide 1.25E+01 uM): 13.9 and 11.8 and 11.3 | slope normalized to DMSO, human alpha thrombin inhibition (human α-thrombin; peptide 1.53E-03 uM): 101.7 and 103.3 and 104.5 | slope normalized to DMSO, human alpha thrombin inhibition (human α-thrombin; peptide 1.56E+00 uM): 26.6 and 25.5 (2×) | slope normalized to DMSO, human alpha thrombin inhibition (human α-thrombin; peptide 1.91E-04 uM): 103.0 and 99.2 and 105.0 | slope normalized to DMSO, human alpha thrombin inhibition (human α-thrombin; peptide 1.95E-01 uM): 64.4 and 63.8 and 63.5 | slope normalized to DMSO, human alpha thrombin inhibition (human α-thrombin; peptide 2.38E-05 uM): 102.9 and 103.4 and 104.0 | slope normalized to DMSO, human alpha thrombin inhibition (human α-thrombin; peptide 2.44E-02 uM): 93.3 and 91.7 and 93.0 | slope normalized to DMSO, human alpha thrombin inhibition (human α-thrombin; peptide 2.50E+01 uM): 12.2 and 11.9 and 11.6 | slope normalized to DMSO, human alpha thrombin inhibition (human α-thrombin; peptide 3.05E-03 uM): 101.3 and 101.9 and 102.4 | slope normalized to DMSO, human alpha thrombin inhibition (human α-thrombin; peptide 3.12E+00 uM): 19.4 (2×) and 18.4 | slope normalized to DMSO, human alpha thrombin inhibition (human α-thrombin; peptide 3.81E-04 uM): 103.1 and 102.3 and 104.4 | slope normalized to DMSO, human alpha thrombin inhibition (human α-thrombin; peptide 3.91E-01 uM): 49.6 and 45.7 and 49.0 | slope normalized to DMSO, human alpha thrombin inhibition (human α-thrombin; peptide 4.77E-05 uM): 101.9 and 103.1 and 105.2 | slope normalized to DMSO, human alpha thrombin inhibition (human α-thrombin; peptide 4.88E-02 uM): 85.5 and 84.9 and 86.4 | slope normalized to DMSO, human alpha thrombin inhibition (human α-thrombin; peptide 5.00E+01 uM): 11.7 and 11.4 and 7.8 | slope normalized to DMSO, human alpha thrombin inhibition (human α-thrombin; peptide 6.10E-03 uM): 99.7 and 99.5 and 102.0 | slope normalized to DMSO, human alpha thrombin inhibition (human α-thrombin; peptide 6.25E+00 uM): 15.9 and 15.6 and 14.9 | slope normalized to DMSO, human alpha thrombin inhibition (human α-thrombin; peptide 7.63E-04 uM): 102.4 (2×) and 103.3 | slope normalized to DMSO, human alpha thrombin inhibition (human α-thrombin; peptide 7.81E-01 uM): 36.6 and 35.0 and 35.1 | slope normalized to DMSO, human alpha thrombin inhibition (human α-thrombin; peptide 9.54E-05 uM): 103.4 and 102.3 and 101.0 | slope normalized to DMSO, human alpha thrombin inhibition (human α-thrombin; peptide 9.77E-02 uM): 76.3 and 76.5 and 77.1 | Ki (rat α-thrombin; average of R1-R3, read-out: Ki Average, rat alpha thrombin inhibition): 36.4 nM | IC50 (rat α-thrombin; individual replicates R1-R3, read-out: IC50, rat alpha thrombin inhibition): 67 nM and 66.1 nM and 64.2 nM | Ki (rat α-thrombin; individual replicates R1-R3, read-out: Ki, rat alpha thrombin inhibition): 37.1 nM and 36.6 nM and 35.6 nM | slope normalized to DMSO, rat alpha thrombin inhibition (rat α-thrombin; peptide 1.00E+02 uM): 6.9 and 7.8 and 7.9 | slope normalized to DMSO, rat alpha thrombin inhibition (rat α-thrombin; peptide 1.19E-05 uM): 99.4 and 99.8 and 100.7 | slope normalized to DMSO, rat alpha thrombin inhibition (rat α-thrombin; peptide 1.22E-02 uM): 80.5 and 81.1 and 80.7 | slope normalized to DMSO, rat alpha thrombin inhibition (rat α-thrombin; peptide 1.25E+01 uM): 8.5 and 8.3 (2×) | slope normalized to DMSO, rat alpha thrombin inhibition (rat α-thrombin; peptide 1.53E-03 uM): 95.1 and 94.7 (2×) | slope normalized to DMSO, rat alpha thrombin inhibition (rat α-thrombin; peptide 1.56E+00 uM): 12.6 and 12.3 and 12.5 | slope normalized to DMSO, rat alpha thrombin inhibition (rat α-thrombin; peptide 1.91E-04 uM): 97.1 (2×) and 95.3 | slope normalized to DMSO, rat alpha thrombin inhibition (rat α-thrombin; peptide 1.95E-01 uM): 34.2 and 33.8 and 33.2 | slope normalized to DMSO, rat alpha thrombin inhibition (rat α-thrombin; peptide 2.38E-05 uM): 93.5 and 98.9 and 98.6 | slope normalized to DMSO, rat alpha thrombin inhibition (rat α-thrombin; peptide 2.44E-02 uM): 71.8 and 70.1 and 71.0 | slope normalized to DMSO, rat alpha thrombin inhibition (rat α-thrombin; peptide 2.50E+01 uM): 8.3 and 8.0 and 8.8 | slope normalized to DMSO, rat alpha thrombin inhibition (rat α-thrombin; peptide 3.05E-03 uM): 90.8 and 91.5 and 91.2 | slope normalized to DMSO, rat alpha thrombin inhibition (rat α-thrombin; peptide 3.12E+00 uM): 10.1 (2×) and 10.3 | slope normalized to DMSO, rat alpha thrombin inhibition (rat α-thrombin; peptide 3.81E-04 uM): 97.2 and 95.5 and 95.9 | slope normalized to DMSO, rat alpha thrombin inhibition (rat α-thrombin; peptide 3.91E-01 uM): 22.7 and 22.8 and 22.5 | slope normalized to DMSO, rat alpha thrombin inhibition (rat α-thrombin; peptide 4.77E-05 uM): 97.5 and 97.4 and 98.2 | slope normalized to DMSO, rat alpha thrombin inhibition (rat α-thrombin; peptide 4.88E-02 uM): 57.9 and 58.1 and 57.0 | slope normalized to DMSO, rat alpha thrombin inhibition (rat α-thrombin; peptide 5.00E+01 uM): 8.1 (2×) and 8.0 | slope normalized to DMSO, rat alpha thrombin inhibition (rat α-thrombin; peptide 6.10E-03 uM): 75.2 and 85.9 and 86.8 | slope normalized to DMSO, rat alpha thrombin inhibition (rat α-thrombin; peptide 6.25E+00 uM): 9.3 (2×) and 10.3 | slope normalized to DMSO, rat alpha thrombin inhibition (rat α-thrombin; peptide 7.63E-04 uM): 94.5 (2×) and 95.4 | slope normalized to DMSO, rat alpha thrombin inhibition (rat α-thrombin; peptide 7.81E-01 uM): 16.5 and 16.1 and 16.2 | slope normalized to DMSO, rat alpha thrombin inhibition (rat α-thrombin; peptide 9.54E-05 uM): 96.4 and 97.0 and 98.4 | slope normalized to DMSO, rat alpha thrombin inhibition (rat α-thrombin; peptide 9.77E-02 uM): 46.4 and 46.1 and 46.7 | PAMPA permeability: % permeability ([1]; 50 μM, 12–18 h, acceptor concentration relative to equilibrium): 66 ± 14% | Permeability% (single replicates R1–R3) ([1]; 50 μM, 12 h (Fig. 6d)): 56.67% and 58.98% and 81.87% | Permeability% Average ([1]; 50 μM, 12 h (Fig. 6d)): 65.8% | Papp at 50 μM ([1]; PAMPA, pH 7.4): 10.7 ×10⁻⁶ cm/s
SMILES: O=C1C[C@H]2CCCN2C(=O)[C@H](Cc2ccccc2)NC(=O)[C@@H](NC(=O)c2ccc(Cl)cc2F)CCC=CCCCCN1 [compound 45]
Ki (human α-thrombin; individual replicates R1-R3, read-out: Ki, human alpha thrombin inhibition): 210 nM (2×) and 194 nM (2×) and 207 nM (2×)
